Results from paper PMC10762177, “Novel betulin derivatives as multidrug reversal agents targeting P-glycoprotein” (Scientific Reports, 2024).

How the values were obtained:
K562/Dox cells = assay: MTT colorimetric assay, cytotoxicity on resistant K562/Dox; assay type: cell-based; details: MTT, K562/Dox; for IC50: Homo sapiens, K562, 48 h, 48 h, read-out: IC50 K562/Dox; for toxicity: 50 μM
Method: This colorimetric technique is based on the ability of viable cells to capture MTT and reduce it through the mitochondrial enzyme succinic dehydrogenase to its insoluble form, formazan crystals. The target compounds dissolved in DMSO (0.5% v/v as final concentration which was non-toxic to cells) at a maximum concentration of 50 µM were exposed to 5 × 10^4 cells distributed in a 96-well plate and incubated for 48 h. […] After this time, the plate was centrifuged at 2000 rpm for 10 min, and 100 µL of DMSO was added to dissolve the formazan crystals formed. Absorbance (Abs) was read at a wavelength of 595 nm in an iMark microplate reader (Bio-Rad, USA). The percentages of cytotoxicity were determined as compared to DMSO treated control cells, which were considered 100% viable as showing the same level of growth as the untreated cells.

K562 cells = assay: MTT colorimetric assay, cytotoxicity on sensitive K562; assay type: cell-based; details: for IC50: MTT, 48 h, K562; for toxicity: 50 μM, K562, MTT
Method: This colorimetric technique is based on the ability of viable cells to capture MTT and reduce it through the mitochondrial enzyme succinic dehydrogenase to its insoluble form, formazan crystals. […] After this time, the plate was centrifuged at 2000 rpm for 10 min, and 100 µL of DMSO was added to dissolve the formazan crystals formed. Absorbance (Abs) was read at a wavelength of 595 nm in an iMark microplate reader (Bio-Rad, USA).

P-gp = P-gp (Homo sapiens, UniProt P08183); assay: Rhodamine 123 intracellular accumulation assay in K562/Dox (flow cytometry); details: for FAR (fluorescence activity ratio): Rho123, K562/Dox; for MEC (minimum effective concentration): Rho123 accumulation
P-gp, sequence (P08183 whole entry): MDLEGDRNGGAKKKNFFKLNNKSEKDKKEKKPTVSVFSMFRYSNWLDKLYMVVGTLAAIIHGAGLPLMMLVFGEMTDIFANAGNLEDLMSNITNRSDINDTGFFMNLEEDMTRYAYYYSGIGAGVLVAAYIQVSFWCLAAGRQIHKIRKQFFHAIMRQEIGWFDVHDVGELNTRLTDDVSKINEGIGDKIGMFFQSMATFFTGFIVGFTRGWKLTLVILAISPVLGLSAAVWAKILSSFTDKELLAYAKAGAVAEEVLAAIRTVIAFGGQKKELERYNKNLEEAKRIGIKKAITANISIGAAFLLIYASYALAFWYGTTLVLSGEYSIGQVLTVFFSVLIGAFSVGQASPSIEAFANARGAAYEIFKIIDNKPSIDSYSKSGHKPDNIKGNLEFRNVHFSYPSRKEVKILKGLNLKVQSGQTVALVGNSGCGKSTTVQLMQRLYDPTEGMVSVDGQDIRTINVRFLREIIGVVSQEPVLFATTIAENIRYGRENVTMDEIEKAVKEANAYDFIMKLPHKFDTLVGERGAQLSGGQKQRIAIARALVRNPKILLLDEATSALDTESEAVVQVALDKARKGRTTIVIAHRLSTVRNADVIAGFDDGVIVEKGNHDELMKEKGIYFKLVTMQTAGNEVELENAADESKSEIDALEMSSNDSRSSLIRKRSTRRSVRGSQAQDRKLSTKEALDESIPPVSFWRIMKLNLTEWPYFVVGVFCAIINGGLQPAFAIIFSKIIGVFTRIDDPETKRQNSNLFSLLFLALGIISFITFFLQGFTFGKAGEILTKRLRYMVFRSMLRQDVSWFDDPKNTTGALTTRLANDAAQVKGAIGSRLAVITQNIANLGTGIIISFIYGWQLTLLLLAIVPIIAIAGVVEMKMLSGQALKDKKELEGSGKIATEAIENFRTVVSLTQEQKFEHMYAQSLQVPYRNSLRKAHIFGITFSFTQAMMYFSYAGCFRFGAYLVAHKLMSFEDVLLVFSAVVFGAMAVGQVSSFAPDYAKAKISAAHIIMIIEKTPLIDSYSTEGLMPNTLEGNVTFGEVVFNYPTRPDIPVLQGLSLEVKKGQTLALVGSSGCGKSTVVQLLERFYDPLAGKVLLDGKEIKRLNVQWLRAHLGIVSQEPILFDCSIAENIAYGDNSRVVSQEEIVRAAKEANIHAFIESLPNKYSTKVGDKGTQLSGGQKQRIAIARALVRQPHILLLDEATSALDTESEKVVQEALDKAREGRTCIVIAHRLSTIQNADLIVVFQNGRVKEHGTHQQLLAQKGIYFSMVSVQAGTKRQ

Structure (SMILES)	IC50 (K562/Dox cells)	IC50 (K562 cells; Homo sapiens, K562, 48 h)	FAR (fluorescence activity ratio) (P-gp; 1.56 µM)	FAR (fluorescence activity ratio) (P-gp; 3.12 µM)	FAR (fluorescence activity ratio) (P-gp; 6.25 µM)	FAR (fluorescence activity ratio) (P-gp; 12.50 µM)	FAR (fluorescence activity ratio) (P-gp; 25 µM)	FAR (fluorescence activity ratio) (P-gp; 50 µM)	MEC (minimum effective concentration) (P-gp; K562/Dox)	Rho123 accumulation / anti-P-gp activity (P-gp; K562/Dox, highest concentrations tested (50 or 6.25 µM))	FAR (fluorescence activity ratio) (P-gp; 0.78 µM)	toxicity (K562/Dox cells)	toxicity (K562 cells)	IC50 (K562 cells)
C=C(C)[C@@H]1CC[C@]2(COC(=O)N3CCc4cc(OC)c(OC)cc4C3)CC[C@]3(C)[C@H](CC[C@@H]4[C@@]5(C)CC[C@H](O)C(C)(C)[C@@H]5CC[C@]43C)[C@@H]12 [Compound 6m]	> 50 µM	> 50 µM	1.03 ± 0.12	1.17 ± 0.03	1.27 ± 0.09	1.32 ± 0.14	1.52 ± 0.09	2.06 ± 0.15	3.12 µM	–	–	–	–	–
C=C(C)[C@@H]1CC[C@]2(COC(=O)NCc3ccc(OC)c(OC)c3)CC[C@]3(C)[C@H](CC[C@@H]4[C@@]5(C)CC[C@H](O)C(C)(C)[C@@H]5CC[C@]43C)[C@@H]12 [Compound 6c]	> 50 µM	> 50 µM	1.00 ± 0.02	1.13 ± 0.03	1.23 ± 0.01	1.40 ± 0.06	1.65 ± 0.11	1.97 ± 0.15	3.12 µM	–	–	–	–	–
C=C(C)[C@@H]1CC[C@]2(COC(=O)NCc3ccc(OC)cc3)CC[C@]3(C)[C@H](CC[C@@H]4[C@@]5(C)CC[C@H](O)C(C)(C)[C@@H]5CC[C@]43C)[C@@H]12 [Compound 6b]	> 50 µM	> 50 µM	–	–	–	–	0.90 ± 0.11	1.60 ± 0.07	50 µM	–	–	–	–	–
C=C(C)[C@@H]1CC[C@]2(COC(=O)c3ccc(OC)cc3)CC[C@]3(C)[C@H](CC[C@@H]4[C@@]5(C)CC[C@H](O)C(C)(C)[C@@H]5CC[C@]43C)[C@@H]12 [Compound 3a]	> 50 µM	> 50 µM	–	–	–	–	–	0.88 ± 0.02	> 50 µM	did not induce statistically significant Rho123 accumulation	–	–	–	–
C=C(C)[C@@H]1CC[C@]2(COC(=O)NCCN3CCN(C(=O)OC(C)(C)C)CC3)CC[C@]3(C)[C@H](CC[C@@H]4[C@@]5(C)CC[C@H](O)C(C)(C)[C@@H]5CC[C@]43C)[C@@H]12 [Compound 6j]	> 50 µM	> 50 µM	–	–	1.08 ± 0.04	1.25 ± 0.02	1.68 ± 0.03	2.57 ± 0.11	12.50 µM	–	–	–	–	–
C=C(C)[C@@H]1CC[C@]2(COC(=O)NCc3cc(OC)c(OC)c(OC)c3)CC[C@]3(C)[C@H](CC[C@@H]4[C@@]5(C)CC[C@H](O)C(C)(C)[C@@H]5CC[C@]43C)[C@@H]12 [Compound 6d]	> 50 µM	> 50 µM	1.27 ± 0.08	1.64 ± 0.16	1.88 ± 0.17	–	2.48 ± 0.29	2.80 ± 0.32	0.78 µM	–	1.16 ± 0.03	–	–	–
C=C(C)[C@@H]1CC[C@]2(COC(=O)NCCN3CCNCC3)CC[C@]3(C)[C@H](CC[C@@H]4[C@@]5(C)CC[C@H](O)C(C)(C)[C@@H]5CC[C@]43C)[C@@H]12 [Compound 6k]	27 ± 1.34 µM	9.4 µM	1.35 ± 0.08	1.48 ± 0.07	2.24 ± 0.24	–	–	–	1.56 µM	–	1.03 ± 0.17	more than 55%	more than 55%	9.44 ± 0.08 µM
C=C(C)[C@@H]1CC[C@]2(COC(=O)NCc3ccc(N4CCN(C)CC4)cc3)CC[C@]3(C)[C@H](CC[C@@H]4[C@@]5(C)CC[C@H](O)C(C)(C)[C@@H]5CC[C@]43C)[C@@H]12 [Compound 6l]	17.4 ± 0.59 µM	8 ± 1.98 µM	–	1.08 ± 0.05	1.30 ± 0.04	1.55 ± 0.03	–	–	6.25 µM	–	–	more than 55%	more than 55%	–
